Data taken from patent publication US4605642A, “CRF antagonists” (The Salk Institute for Biological Studies, priority 1984, dated 1986).
Square brackets hold non-standard residues; d marks the D form. Peptide text beside a SMILES is read from it. Nle = CCCC[C@H](N)C(=O)O

How the values were obtained:
[1] = test system: secretion of ACTH by cultured rat pituitary cells; test: Blocking of oCRF-stimulated ACTH secretion by cultured rat pituitary cells; type: cell-based; settings: general procedure set forth in Example III
Protocol: (§1) The effectiveness of synthetic CRF antagonists to block the secretion of ACTH and β-endorphin by cultured rat pituitary cells is measured using the procedure as generally set forth in Vale et al., Endocrinology, 91, 562 (1972). In vivo testing is carried out using the general procedure set forth in C. Rivier et al., Science, 218, 377 (1982).

[2] = test system: secretion of β-endorphin by cultured rat pituitary cells; test: Blocking of β-endorphin (β-END-LI) secretion by cultured rat pituitary cells; type: cell-based; settings: general procedure set forth in Example III
Protocol: as §1

Row | Molecule | inhibition of the secretion of ACTH (in words) [1] | inhibition of the secretion of β-END-LI (in words) [2]
1 | CCCC[C@H](NC(=O)[C@@H](NC(=O)[C@H](CCC(=O)O)NC(=O)[C@H](CC(C)C)NC(=O)[C@H](CC(C)C)NC(=O)[C@H](CCCCN)NC(=O)[C@H](CCCNC(=N)N)NC(=O)[C@H](CC(N)=O)NC(=O)[C@H](CO)NC(=O)[C@H](Cc1c[nH]cn1)NC(=O)[C@H](C)NC(=O)[C@H](CCC(N)=O)NC(=O)[C@H](CCC(N)=O)NC(=O)[C@H](C)NC(=O)[C@H](CC(C)C)NC(=O)[C@H](CCC(N)=O)NC(=O)[C@H](CCC(=O)O)NC(=O)[C@H](C)NC(=O)[C@H](CCCNC(=N)N)NC(=O)[C@H](C)NC(=O)[C@H](C)NC(=O)[C@H](CCC(=O)O)NC(=O)[C@H](CC(C)C)NC(=O)[C@@H](NC(=O)[C@H](CCC(=O)O)NC(=O)[C@H](CCCNC(=N)N)NC(=O)[C@H](CC(C)C)NC(=O)[C@H](CC(C)C)NC(=O)[C@H](Cc1c[nH]cn1)NC(=O)[C@H](Cc1ccccc1)NC(=O)[C@@H](NC(=O)[C@H](CC(C)C)NC(=O)[C@@H](N)CC(=O)O)[C@@H](C)O)C(C)C)[C@@H](C)CC)C(N)=O [[Ala^21, Leu^38, Nle^41]-hCRF(9-41)] (H-DLTFHLLREVLEAARAEQLAQQAHSNRKLLEI[Nle]-NH2) | inhibits the secretion | inhibits the secretion
2 | CCCC[C@H](N)C(=O)N[C@@H](CC(=O)O)C(=O)N[C@@H](CC(C)C)C(=O)N[C@@H](CO)C(=O)N[C@@H](Cc1ccccc1)C(=O)N[C@@H](Cc1c[nH]cn1)C(=O)N[C@@H](CC(C)C)C(=O)N[C@@H](CC(C)C)C(=O)N[C@@H](CCCNC(=N)N)C(=O)N[C@@H](CCC(=O)O)C(=O)N[C@H](C(=O)N[C@@H](CC(C)C)C(=O)N[C@@H](CCC(=O)O)C(=O)N[C@@H](CCSC)C(=O)N[C@@H](C)C(=O)N[C@@H](CCCNC(=N)N)C(=O)N[C@@H](C)C(=O)N[C@@H](CCC(=O)O)C(=O)N[C@@H](CCC(N)=O)C(=O)N[C@@H](CC(C)C)C(=O)N[C@@H](C)C(=O)N[C@@H](CCC(N)=O)C(=O)N[C@@H](CCC(N)=O)C(=O)N[C@@H](C)C(=O)N[C@@H](Cc1c[nH]cn1)C(=O)N[C@@H](CC(C)C)C(=O)N[C@@H](CC(N)=O)C(=O)N[C@@H](CCCNC(=N)N)C(=O)N[C@@H](CCCCN)C(=O)N[C@@H](CC(C)C)C(=O)N[C@@H](CCSC)C(=O)N[C@@H](CCC(=O)O)C(=O)N[C@H](C(=O)N[C@H](C(N)=O)[C@@H](C)CC)[C@@H](C)CC)C(C)C [[Nle^8, Ser^11, Leu^33]-hCRF(8-41)] (H-[Nle]DLSFHLLREVLEMARAEQLAQQAHLNRKLMEII-NH2) | inhibits the secretion | inhibits the secretion
3 | CCCC[C@H](NC(=O)[C@@H](NC(=O)[C@@H](N)CC(C)C)[C@@H](C)O)C(=O)N[C@@H](Cc1c[nH]cn1)C(=O)N[C@@H](CC(C)C)C(=O)N[C@@H](CC(C)C)C(=O)N[C@@H](CCCNC(=N)N)C(=O)N[C@@H](CCC(=O)O)C(=O)N[C@H](C(=O)N[C@@H](CC(C)C)C(=O)N[C@@H](CCC(=O)O)C(=O)N[C@@H](CCSC)C(=O)N[C@@H](C)C(=O)N[C@@H](CCCNC(=N)N)C(=O)N[C@@H](C)C(=O)N[C@@H](CCC(=O)O)C(=O)N[C@@H](CCC(N)=O)C(=O)N[C@@H](CC(C)C)C(=O)N[C@@H](C)C(=O)N[C@@H](CCC(N)=O)C(=O)N[C@@H](CCC(N)=O)C(=O)N[C@@H](C)C(=O)N[C@@H](Cc1c[nH]cn1)C(=O)N[C@@H](CO)C(=O)N[C@@H](CC(N)=O)C(=O)N[C@@H](CCCNC(=N)N)C(=O)N[C@@H](CCCCN)C(=O)N[C@@H](CC(C)C)C(=O)N[C@@H](CCSC)C(=O)N[C@@H](CCC(=O)O)C(=O)N[C@H](C(=O)N[C@H](C(N)=O)[C@@H](C)CC)[C@@H](C)CC)C(C)C [[Nle^12]-hCRF(10-41)] (H-LT[Nle]HLLREVLEMARAEQLAQQAHSNRKLMEII-NH2) | inhibits the secretion | inhibits the secretion
4 | CCCC[C@H](NC(=O)[C@H](CCC(=O)O)NC(=O)[C@H](CC(C)C)NC(=O)[C@H](CCCC)NC(=O)[C@H](CCC(=O)O)NC(=O)[C@H](CCCNC(=N)N)NC(=O)[C@H](CC(C)C)NC(=O)[C@H](CC(C)C)NC(=O)[C@H](Cc1c[nH]cn1)NC(=O)[C@H](Cc1ccccc1)NC(=O)[C@@H](NC(=O)[C@H](CC(C)C)NC(=O)[C@H](CC(=O)O)NC(=O)[C@@H](N)CC(C)C)[C@@H](C)O)C(=O)N[C@@H](C)C(=O)N[C@@H](CCCCN)C(=O)N[C@@H](C)C(=O)N[C@@H](CCC(=O)O)C(=O)N[C@@H](CCC(N)=O)C(=O)N[C@@H](CCC(=O)O)C(=O)N[C@@H](C)C(=O)N[C@@H](CCC(=O)O)C(=O)N[C@@H](CCC(N)=O)C(=O)N[C@@H](C)C(=O)N[C@@H](C)C(=O)N[C@@H](CC(C)C)C(=O)N[C@@H](CC(N)=O)C(=O)N[C@@H](CCCNC(=N)N)C(=O)N[C@@H](CC(C)C)C(=O)N[C@@H](CC(C)C)C(=O)N[C@@H](CC(C)C)C(=O)N[C@@H](CCC(=O)O)C(=O)N[C@@H](CCC(=O)O)C(=O)N[C@@H](C)C(N)=O [[Nle^18,21]-AHC(8-41)] (H-LDLTFHLLRE[Nle]LE[Nle]AKAEQEAEQAALNRLLLEEA-NH2) | inhibits the secretion | inhibits the secretion
5 | CCCC[C@H](NC(=O)[C@H](CCC(=O)O)NC(=O)[C@H](CC(C)C)NC(=O)[C@H](CCCC)NC(=O)[C@H](CCC(=O)O)NC(=O)[C@H](CCCNC(=N)N)NC(=O)[C@H](CC(C)C)NC(=O)[C@H](CC(C)C)NC(=O)[C@H](Cc1c[nH]cn1)NC(=O)[C@H](Cc1ccccc1)NC(=O)[C@@H](NC(=O)[C@H](CC(C)C)NC(=O)[C@@H](N)CC(=O)O)[C@@H](C)O)C(=O)N[C@@H](C)C(=O)N[C@@H](CCCCN)C(=O)N[C@@H](C)C(=O)N[C@@H](CCC(=O)O)C(=O)N[C@@H](CCC(N)=O)C(=O)N[C@@H](CCC(=O)O)C(=O)N[C@@H](C)C(=O)N[C@@H](CCC(=O)O)C(=O)N[C@@H](CCC(N)=O)C(=O)N[C@@H](C)C(=O)N[C@@H](C)C(=O)N[C@@H](CC(C)C)C(=O)N[C@@H](CC(N)=O)C(=O)N[C@@H](CCCNC(=N)N)C(=O)N[C@@H](CC(C)C)C(=O)N[C@@H](CC(C)C)C(=O)N[C@@H](CC(C)C)C(=O)N[C@@H](CCC(=O)O)C(=O)N[C@@H](CCC(=O)O)C(=O)N[C@@H](C)C(N)=O [[Nle^18,21]-AHC(9-41)] (H-DLTFHLLRE[Nle]LE[Nle]AKAEQEAEQAALNRLLLEEA-NH2) | inhibits the secretion | inhibits the secretion
6 | CCCC[C@H](NC(=O)[C@H](CCC(=O)O)NC(=O)[C@H](CC(C)C)NC(=O)[C@H](CCCC)NC(=O)[C@H](CCC(=O)O)NC(=O)[C@H](CCCNC(=N)N)NC(=O)[C@H](CC(C)C)NC(=O)[C@H](CC(C)C)NC(=O)[C@H](Cc1c[nH]cn1)NC(=O)[C@H](Cc1ccccc1)NC(=O)[C@@H](NC(=O)[C@@H](N)CC(C)C)[C@@H](C)O)C(=O)N[C@@H](C)C(=O)N[C@@H](CCCCN)C(=O)N[C@@H](C)C(=O)N[C@@H](CCC(=O)O)C(=O)N[C@@H](CCC(N)=O)C(=O)N[C@@H](CCC(=O)O)C(=O)N[C@@H](C)C(=O)N[C@@H](CCC(=O)O)C(=O)N[C@@H](CCC(N)=O)C(=O)N[C@@H](C)C(=O)N[C@@H](C)C(=O)N[C@@H](CC(C)C)C(=O)N[C@@H](CC(N)=O)C(=O)N[C@@H](CCCNC(=N)N)C(=O)N[C@@H](CC(C)C)C(=O)N[C@@H](CC(C)C)C(=O)N[C@@H](CC(C)C)C(=O)N[C@@H](CCC(=O)O)C(=O)N[C@@H](CCC(=O)O)C(=O)N[C@@H](C)C(N)=O [[Nle^18,21]-AHC(10-41)] (H-LTFHLLRE[Nle]LE[Nle]AKAEQEAEQAALNRLLLEEA-NH2) | inhibits the secretion | inhibits the secretion
7 | CCCC[C@H](NC(=O)[C@H](CCC(=O)O)NC(=O)[C@H](CC(C)C)NC(=O)[C@@H](NC(=O)[C@H](CCC(=O)O)NC(=O)[C@H](CCCNC(=N)N)NC(=O)[C@H](CC(C)C)NC(=O)[C@H](CC(C)C)NC(=O)[C@H](Cc1c[nH]cn1)NC(=O)[C@H](Cc1ccccc1)NC(=O)[C@@H](NC(=O)[C@H](CC(C)C)NC(=O)[C@@H](N)CC(=O)O)[C@@H](C)O)C(C)C)C(=O)N[C@@H](C)C(=O)N[C@@H](CCCNC(=N)N)C(=O)N[C@@H](C)C(=O)N[C@@H](CCC(=O)O)C(=O)N[C@@H](CCC(N)=O)C(=O)N[C@@H](CC(C)C)C(=O)N[C@@H](C)C(=O)N[C@@H](CCC(N)=O)C(=O)N[C@@H](CCC(N)=O)C(=O)N[C@@H](C)C(=O)N[C@@H](Cc1ccc(O)cc1)C(=O)N[C@@H](CO)C(=O)N[C@@H](CC(N)=O)C(=O)N[C@@H](CCCNC(=N)N)C(=O)N[C@@H](CCCCN)C(=O)N[C@@H](CC(C)C)C(=O)N[C@@H](CCSC)C(=O)N[C@@H](CCC(=O)O)C(=O)N[C@H](C(=O)N[C@H](C(N)=O)[C@@H](C)CC)[C@@H](C)CC [[Nle^21, Tyr^32]-hCRF(9-41)] (H-DLTFHLLREVLE[Nle]ARAEQLAQQAYSNRKLMEII-NH2) | inhibits the secretion | inhibits the secretion
8 | Ac-DLTFHLLREVLEMARAEQLAQQAHSNRKLMDII-NH2 [[Acetyl-Asp^9, Asp^39]-hCRF(9-41)] | inhibits the secretion | inhibits the secretion
9 | H-Asp-CML-Thr-Leu-Glu-CML-CML-Arg-Glu-Met-CML-Glu-Met-CMA-Lys-Ala-Glu-Gln- CML-Ala-Glu-Gln-Ala-CMA-CML-Asn-Arg-Leu-CML-Leu-Glu-Glu-CMA-NH2 | inhibits the secretion | inhibits the secretion
10 | H-DLSLELLRKMIEIAKQEKEKQQAANNRLLMDTI-NH2 [[Ala^21, Met^37]-sauvagine(8-40)] | inhibits the secretion | inhibits the secretion
11 | H-DLSLELLRKMIEIEKQEKLKQQAANNRLLMDTI-NH2 [[Leu^26, Met^37]-sauvagine(8-40)] | inhibits the secretion | inhibits the secretion
12 | H-DLTFALLREMLEMAKAEQEAEQAALNRLLLEEA-NH2 [[Ala^13]-AHC(9-41)] | inhibits the secretion | inhibits the secretion
